# Experiments:
# Experiment in all cases: combination Emax (second highest fraction inhibited in the dose matrix, 72 h); higher = more inhibition; extreme values may be limits of the assay
# BT-20 (Breast Carcinoma) = test system: BT-20 (Breast Carcinoma)
# Outline: (§1)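 Cell lines in DMEM/F12 or RPMI with 10% FBS were plated in 1536-well plates, held 24 hours at 37°C, 5% CO2, then given two-drug dose matrices for 72 hours (DMSO typically 0.2%). Viability was read by CellTiter-Glo 2.0 luminescence and scaled as inhibition from 0 (vehicle wells) to 1 (blank wells). Combination Emax is the second-highest inhibition in the matrix; Bliss excess is observed combination effect minus expected EA + EB − EA·EB, EA and EB being single-agent effects.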
# [1] = test system: DG-75 (Burkitt's Lymphoma)
# Outline: as §1
# [2] = test system: NCI-N87 (Gastric Carcinoma)
# Outline: as §1
# [3] = test system: KYSE-150 (Esophageal Squamous Cell Carcinoma)
# Outline: as §1
# [4] = test system: JHH-7 (Hepatocellular Carcinoma)
# Outline: as §1
# EW-13 (Ewing's Sarcoma) = test system: EW-13 (Ewing's Sarcoma)
# Outline: as §1
# [5] = test system: SCC-9 (Oral Cavity Carcinoma)
# Outline: as §1
# NH-12 (Neuroblastoma) = test system: NH-12 (Neuroblastoma)
# Outline: as §1
# RPMI-7951 (Melanoma) = test system: RPMI-7951 (Melanoma)
# Outline: as §1
# [6] = test system: HuP-T3 (Pancreatic Carcinoma)
# Outline: as §1
# [7] = test system: VMRC-LCD (Lung Adenocarcinoma)
# Outline: as §1
# IMR-5 (Neuroblastoma) = test system: IMR-5 (Neuroblastoma)
# Outline: as §1
# [8] = test system: OVISE (Ovarian Carcinoma)
# Outline: as §1
# [9] = test system: KYSE-50 (Esophageal Squamous Cell Carcinoma)
# Outline: as §1
# [10] = test system: NCI-H1573 (Lung Adenocarcinoma)
# Outline: as §1
# [11] = test system: ASH-3 (Thyroid Gland Carcinoma)
# Outline: as §1
# [12] = test system: KP-2 (Pancreatic Carcinoma)
# Outline: as §1
# [13] = test system: NCI-H513 (Other Solid Carcinomas)
# Outline: as §1
# [14] = test system: MFE-319 (Endometrial Carcinoma)
# Outline: as §1
# [15] = test system: PF-382 (T-Lymphoblastic Leukemia)
# Outline: as §1
compound,measurement,setting,value
"CCc1c2c(nc3ccc(O)cc13)-c1cc3c(c(=O)n1C2)COC(=O)[C@]3(O)CC [SN-38] + O=C(c1cc(Cc2n[nH]c(=O)c3ccccc23)ccc1F)N1CCN(C(=O)C2CC2)CC1 [Olaparib] (first compound max 0.3 µM, 7x7, partner max 10 µM)",combination Emax,BT-20 (Breast Carcinoma),0.855
same,combination Emax,[1],0.852
same,combination Emax,[2],0.722
same,combination Emax,[3],0.728
same,combination Emax,[4],0.289
same,combination Emax,EW-13 (Ewing's Sarcoma),0.811
same,combination Emax,[5],0.365
same,combination Emax,NH-12 (Neuroblastoma),0.903
same,combination Emax,RPMI-7951 (Melanoma),0.948
same,combination Emax,[6],0.683
same,combination Emax,[7],0.121
same,combination Emax,IMR-5 (Neuroblastoma),1
same,combination Emax,[8],0.293
same,combination Emax,[9],0.269
same,combination Emax,[10],0.187
same,combination Emax,[11],0.912
same,combination Emax,[12],0.55
same,combination Emax,[13],0.615
same,combination Emax,[14],0.301
same,combination Emax,[15],1

# Source: the supplement of paper PMC11061612
